For one data set, the target named is SOS1 (Homo sapiens (Human), UniProt Q07889). Description: Ras-SOS interaction assay (HTRF), K-Ras G13D utilized. It counts as binding. Background: In TR-FRET formats the signal depends on donor and acceptor labels being close together.
Data set [1] relates to NCI-H1975 (ATCC CRL-5908) cell line comprising an EGFR T790M L858R double mutation. Description: EGFR-SOS cellular inhibition assay (CellTiter-Glo cell proliferation). It counts as cell-based. The conditions noted are these: Homo sapiens. A general note: ATP-based viability assays read luminescence as a measure of living cells.
Description: A CellTiter-Glo (CTG) luminescent based assay (Promega) is used to assess growth of the cells, as a measurement of the ability of the compounds herein to inhibit EGFR signaling in the cells. […] The day after plating, cells are treated with a dilution series (e.g., a 9 point 3-fold dilution series) of the compounds herein (e.g., approximately 125 μL final volume per well).
Data set [2] relates to MIA PaCa-2 cells (K-Ras G12C). Description: Ras-SOS cellular growth inhibition assay (CellTiter-Glo). The conditions noted are these: Homo sapiens, MIA PaCa-2, 120 h, read-out: IC50 in inhibiting MIA PaCa-2 cell growth.
Description: A CellTiter-Glo (CTG) luminescent based assay (Promega) is used to assess growth of the cells, as a measurement of the ability of the compounds herein to inhibit Ras signaling in the cells. […] The day after plating, cells are treated with a dilution series (e.g., a 9 point 3-fold dilution series) of the compounds herein (e.g., approximately 125 μL final volume per well). Cell viability can be monitored (e.g., approximately 5 days later) according to the manufacturer's recommended instructions, where the CellTiter-Glo reagent is added (e.g., approximately 65 μL), vigorously mixed, covered, and placed on a plate shaker (e.g., approximately for 20 min) to ensure sufficient cell lysis prior to assessment of luminescent signal. The IC50 values are determined using the four-parameter fit. The resulting IC50 value is a measurement of the ability of the compounds herein to reduce cell growth of Ras-driven cells as representative tumor cells.
Data set [3] in a line: Mouse oral exposure (% F). It is filed as in vivo. As to conditions: plasma, female CD-1 mice, 10 mg/kg oral vs 2 mg/kg IV, single dosing. The protocol:
A pharmacokinetic profile for a test compound is assessed by single dosing in female CD-1 mice. […] One set of animals is dosed intravenous (IV) with test compound, 2 mg/kg in 20% HP-beta-CD or 20% Captisol, pH adjusted to −5-6 by citric acid at 10 mL/kg. Time of blood sampling is 5 minutes, 15 minutes, 30 minutes, 90 minutes, 360 minutes, and 24 hours following IV dosing. […] Oral dosing solution concentration is 1 mg/mL test compound and 10 mL/kg. Time of blood sampling is 15 minutes, 30 minutes, 90 minutes, 180 minutes, 360 minutes and 24 hours following oral (po) dosing. Blood samples (˜0.1 mL/sample) are collected via submandibular facial vein and placed in tubes containing EDTA-K2 and stored on ice until centrifuged. The blood samples are centrifuged at approximately 6800 g for 6 minutes at 2-8° C. and the resulting plasma is separated and stored frozen at approximately −80° C. Plasma samples are analyzed using an Agilent Technologies 6430 Triple Quad LC/MS system, following the manufacturer instructions. All the analytes are detected with positive-mode electrospray ionization (ES+). […] Based on the time course sampling, an area under the curve is calculated for the oral dose group and the intravenous dose group. Percentage mouse bioavailability is calculated based on equation 6. […]

[4] abbreviates: K-Ras G13D, read-out: SOS1 IC50.
[5] abbreviates: K-Ras G13D, read-out: IC50 value against SOS1.
[6] abbreviates: 120 h, NCI-H1975 cell proliferation, approximately 5 days, read-out: H1975 IC50.
Setting [7] is: NCI-H1975, EGFR T790M L858R double mutation, read-out: IC50 in inhibiting growth of NCI-H1975 cell line.
Setting [8] is: comparative values (Table 3), read-out: SOS1 IC50.

Like-named read-outs stand apart in the source and are kept apart here. Where only a bound is given, the exact number is not on record here.

SOS1, sequence (Q07889 564-1049): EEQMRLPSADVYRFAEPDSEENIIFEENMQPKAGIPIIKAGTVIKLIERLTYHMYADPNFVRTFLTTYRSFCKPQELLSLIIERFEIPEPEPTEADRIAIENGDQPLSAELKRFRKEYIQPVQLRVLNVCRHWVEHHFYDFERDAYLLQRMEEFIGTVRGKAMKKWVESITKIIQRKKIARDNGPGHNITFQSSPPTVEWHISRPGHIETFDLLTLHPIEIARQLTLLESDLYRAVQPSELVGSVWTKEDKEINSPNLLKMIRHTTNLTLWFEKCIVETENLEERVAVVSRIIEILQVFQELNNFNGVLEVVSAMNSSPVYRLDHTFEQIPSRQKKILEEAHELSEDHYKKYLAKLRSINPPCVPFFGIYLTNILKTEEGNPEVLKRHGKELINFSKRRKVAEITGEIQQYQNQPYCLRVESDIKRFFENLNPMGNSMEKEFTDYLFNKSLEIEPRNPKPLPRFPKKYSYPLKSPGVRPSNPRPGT

For `C[C@H]1Nc2ncnc3c2cc(C2(C#N)CC2)c(=O)n3CCCCCC=CCN2CCC(CC2)C(F)(F)c2cccc1c2`, the ring closure, yield of all isomers (from C=CCCCCCn1c(=O)c(C2(C#N)CC2)cc2c(N[C@H](C)c3cccc(C(F)(F)C4CCN(CC=C)CC4)c3)ncnc21, rcm bond, Grubbs II catalyst, DCM, 1.41 mM, 40.0 °C) came to 18.5%.
Where the note is “from C=CCCCCn1c(=O)c(C2CCS(=O)(=O)CC2)cc2c(N[C@H](C)c3cccc(C(F)(F)C4CCN(CC=C)CC4)c3)nc(C)nc21, rcm bond, Grubbs II, DCM, 4.48 mM, 25.0 °C, 16.0 h”, `Cc1nc2c3cc(C4CCS(=O)(=O)CC4)c(=O)n(c3n1)CCCCC=CCN1CCC(CC1)C(F)(F)c1cccc(c1)[C@@H](C)N2` gave a ring closure, yield of all isomers of 64.2%.
Usually IC50 stands for the midpoint of a concentration-inhibition curve. Compound `COc1cc2nc(C)nc3c2cc1OCCOCCOCCOCCOCCNCc1ccccc1C1=CC=C(S1)[C@@H](C)N3` [Compound 56, (R)-5^7-methoxy-5^2,3-dimethyl-6,9,12,15,18-pentaoxa-4,21-diaza-5(4,6)-quinazolina-2(2,5)-thiophena-1(1,2)-benzenacyclodocosaphane] came in with a ring closure, yield of all isomers (from COc1cc2nc(C)nc(N[C@H](C)c3ccc(-c4ccccc4C=O)s3)c2cc1OCCOCCOCCOCCOCCN, amine bond, NaBH3CN, DCM, 28.4 mM, 25.0 °C, 16.0 h, 2 steps) of 59.3%. At SOS1 (setting [4]), the IC50 was 100 to 5000 nM.
As for `Cc1nc2c3cc(C4CCS(=O)(=O)CC4)c(=O)n(c3n1)CCCCC/C=C\CC(C)(O)C(F)(F)c1cccc(c1)[C@@H](C)N2` (stereo partly drawn) [Compound 101, (3R,Z)-1^6-(1,1-dioxidotetrahydro-2H-thiopyran-4-yl)-5,5-difluoro-6-hydroxy-1^2,3,6-trimethyl-1^7,1^8-dihydro-2-aza-1(4,8)-pyrido[2,3-d]pyrimidina-4(1,3)-benzenacyclotetradecaphan-8-en-1^7-one], the IC50 is under 50 nM at SOS1 (setting [5]); under 100 nM at SOS1 (setting [4]); under 1000 nM in data set [1] (setting [6]); under 500 nM in data set [1] (setting [7]); under 1000 nM in data set [2].
Regarding `C[C@H]1Nc2ncnc3c2cc(C2(C#N)CCS(=O)(=O)CC2)c(=O)n3CCCCCCCN2CCC(CC2)C(F)(F)c2cccc1c2F` [Compound 112, 4-((4R)-3^2,2,2-trifluoro-4-methyl-6^7-oxo-6^7,6^8-dihydro-5-aza-6(4,8)-pyrido[2,3-d]pyrimidina-1(4,1)-piperidina-3(1,3)-benzenacyclotridecaphane-6^6-yl)tetrahydro-2H-thiopyran-4-carbonitrile 1,1-dioxide], the ring closure, yield of all isomers (from C[C@@H](Nc1ncnc2c1cc(C1(C#N)CCS(=O)(=O)CC1)c(=O)n2CCCCCCC=O)c1cccc(C(F)(F)C2CCNCC2)c1F, amine bond, NaBH3CN, MeOH, 0.73 mM, 25.0 °C, 16.5 h) came out at 28.2%. Also, the IC50 at SOS1 (setting [4]) was under 100 nM; in data set [1] (setting [6]), under 1000 nM.
For `C[C@H]1Nc2ncnc3c2cc(C2(C#N)CC2)c(=O)n3CCCCC/C=C\CN2CCC(CC2)C(F)(F)c2cccc1c2` [Compound 120, 1-((4R,Z)-2,2-difluoro-4-methyl-6^7-oxo-6^7,6^8-dihydro-5-aza-6(4,8)-pyrido[2,3-d]pyrimidina-1(4,1)-piperidina-3(1,3)-benzenacyclotetradecaphan-12-en-6^6-yl)cyclopropane-1-carbonitrile], the IC50 is under 50 nM at SOS1 (setting [5]); under 100 nM at SOS1 (setting [4]); under 1000 nM in data set [1] (setting [6]); under 500 nM in data set [1] (setting [7]); under 1000 nM in data set [2].
For the compound `Cc1nc2c3cc(C4(C#N)CC4)c(=O)n(c3n1)CCCCCCCN1CCC(CC1)C(F)(F)c1cccc(c1F)[C@@H](C)N2` [Compound 167, 1-((4R)-3^2,2,2-trifluoro-6^2,4-dimethyl-6^7-oxo-6^7,6^8-dihydro-5-aza-6(4,8)-pyrido[2,3-d]pyrimidina-1(4,1)-piperidina-3(1,3)-benzenacyclotridecaphane-6^6-yl)cyclopropane-1-carbonitrile], the IC50 on SOS1 (setting [5]) was under 50 nM; on SOS1 (setting [4]) it was under 100 nM; in data set [1] (setting [6]) it was under 1000 nM; in data set [1] (setting [7]), under 500 nM; in data set [2], under 1000 nM.
As to `Cc1nc2c3cc(C4(C#N)CC4)c(=O)n(c3n1)CCC/C=C\CN1CCC(CC1)C(F)(F)c1cccc(c1F)[C@@H](C)N2` [Compound 170, 1-((4R,Z)-3^2,2,2-trifluoro-6^2,4-dimethyl-6^7-oxo-6^7,6^8-dihydro-5-aza-6(4,8)-pyrido[2,3-d]pyrimidina-1(4,1)-piperidina-3(1,3)-benzenacyclododecaphan-10-en-6^6-yl)cyclopropane-1-carbonitrile], the IC50 at SOS1 (setting [5]) was under 50 nM; at SOS1 (setting [4]), under 100 nM; in data set [1] (setting [6]) it was under 1000 nM; in data set [1] (setting [7]), under 500 nM; in data set [2], under 1000 nM.
As for `Cc1nc2c3cc(C4(C#N)CC4)c(=O)n(c3n1)CCCCC/C=C\CN1CCC(CC1)C(F)(F)c1cccc(c1)[C@@H](C)N2` [Compound 171, 1-((4R,Z)-2,2-difluoro-6^2,4-dimethyl-6^7-oxo-6^7,6^8-dihydro-5-aza-6(4,8)-pyrido[2,3-d]pyrimidina-1(4,1)-piperidina-3(1,3)-benzenacyclotetradecaphan-12-en-6^6-yl)cyclopropane-1-carbonitrile], the IC50 was under 50 nM on SOS1 (setting [5]); under 100 nM on SOS1 (setting [4]); under 1000 nM in data set [1] (setting [6]); under 500 nM in data set [1] (setting [7]); under 1000 nM in data set [2].
Turning to `Cc1nc2c3cc(C4CCS(=O)(=O)CC4)c(=O)n(c3n1)CCCCCCCN1CCC(CC1)C(F)(F)c1cccc(c1)[C@@H](C)N2` [Compound 173, (4R)-6^6-(1,1-dioxidotetrahydro-2H-thiopyran-4-yl)-2,2-difluoro-6^2,4-dimethyl-6^7,6^8-dihydro-5-aza-6(4,8)-pyrido[2,3-d]pyrimidina-1(4,1)-piperidina-3(1,3)-benzenacyclotridecaphan-6^7-one], the IC50 on SOS1 (setting [5]) was under 50 nM; at SOS1 (setting [4]), under 100 nM; in data set [1] (setting [6]) it was under 1000 nM; in data set [1] (setting [7]), under 500 nM; in data set [2], under 1000 nM.
For the compound `Cc1nc2c3cc(C4CCS(=O)(=O)CC4)c(=O)n(c3n1)CCCC/C=C\CN1CCC(CC1)C(F)(F)c1cccc(c1)[C@@H](C)N2` [Compound 174, (4R,Z)-6^6-(1,1-dioxidotetrahydro-2H-thiopyran-4-yl)-2,2-difluoro-6^2,4-dimethyl-6^7,6^8-dihydro-5-aza-6 (4,8)-pyrido[2,3-d]pyrimidina-1(4,1)-piperidina-3(1,3)-benzenacyclotridecaphan-11-en-6^7-one], the IC50 at SOS1 (setting [5]) was under 50 nM; on SOS1 (setting [4]), under 100 nM; in data set [1] (setting [6]), under 1000 nM; in data set [1] (setting [7]), under 500 nM; in data set [2] it was under 1000 nM.
The bioavailability is dose-corrected exposure relative to a reference, in per cent. A high value points to much systemic uptake. Take `Cc1nc2c3cc(C4CCN(C(C)C)CC4)c(=O)n(c3n1)CCCC/C=C\CN1CCC(CC1)C(F)(F)c1cccc(c1)[C@@H](C)N2` [Compound 175, (4R,Z)-2,2-difluoro-6^6-(1-isopropylpiperidin-4-yl)-6^2,4-dimethyl-6^7,6^8-dihydro-5-aza-6(4,8)-pyrido[2,3-d]pyrimidina-1(4,1)-piperidina-3(1,3)-benzenacyclotridecaphan-11-en-6^7-one]: the IC50 was under 50 nM at SOS1 (setting [5]); under 100 nM on SOS1 (setting [4]); 8 nM on SOS1 (setting [8]); under 1000 nM in data set [1] (setting [6]); under 500 nM in data set [1] (setting [7]); under 1000 nM in data set [2]. This compound came in with a bioavailability in data set [3] of at least 4%.
As for `C[C@H]1Nc2ncnc3c2cc(C2CCS(=O)(=O)CC2)c(=O)n3CCCOCCCCN2CC(C2)CC(F)(F)c2cccc1c2` [Compound 176, (3R)-1^6-(1,1-dioxidotetrahydro-2H-thiopyran-4-yl)-5,5-difluoro-3-methyl-1^7,1^8-dihydro-12-oxa-2-aza-1(4,8)-pyrido[2,3-d]pyrimidina-7(3,1)-azetidina-4(1,3)-benzenacyclopentadecaphan-1^7-one], the IC50 on SOS1 (setting [5]) was under 50 nM; on SOS1 (setting [4]), under 100 nM; on SOS1 (setting [8]), 7 nM; in data set [1] (setting [6]), under 1000 nM; in data set [1] (setting [7]), under 500 nM. The compound also displayed a bioavailability in data set [3] of at least 4%.

The values are drawn from patent publication US20230339952A1, “MACROCYCLIC HETEROCYCLES AND USES THEREOF” (Kumquat Biosciences Inc., priority 2022, published 2023).
